Reference: US7321059B2, “Compounds for use as surfactants” (Glaxo Group Limited, priority 2001, dated 2008)

How the values were obtained:
[1] = Content uniformity by dose through use testing of salmeterol xinafoate HFA 134a MDI formulations; format: physicochemical; conditions: salmeterol xinafoate 25 mcg per actuation in HFA 134a
Experimental: Salmeterol xinafoate formulations in HFA 134a, of strength 25 mcg per actuation, and 10% w/w (relative to drug) of the relevant surfactant compound of formula (I) (i.e. Example 3 or Example 4) prepared in aluminum cans with a crimped cap containing a metering valve using salmeterol xinafoate (8.7 mg), HFA 134a (18 g) and the relevant compound (0.87 mg). The control was prepared without the addition of a surfactant. The content uniformity of the formulations was assessed by dose through use testing. Testing was performed on a set of 10 cans/inhalers for each of the formulations, at “beginning of use” (BoU) and “end of use” (EoU). After each inhaler had been primed (4 shots fired to waste), actuations 1 and 2 (BoU) were collected. The next 116 actuations of each inhaler were then fired to waste using an automated method and actuations 119 and 120 (EoU) collected.
In the control there was a rise from beginning to end of use of 5.6 mcg. However, in the presence of the said surfactant compound this rise was reduced to 1.4 mcg for formulations incorporating a compound of Example 3 and 2.8 mcg for formulations incorporating a compound of Example 4. There was also a reduction in the percentage RSD at BoU for the formulations incorporating said surfactant compounds, thereby showing improved can to can reproducibility. Furthermore, there was also a reduction in the percentage RSD at EoU for the formulations incorporating Example 4. The presence of the said surfactants therefore improves the content uniformity of the inhaler.

[2] = Deposition of drug on valve and can of salmeterol xinafoate HFA 134a MDI formulations (HPLC); format: physicochemical; conditions: salmeterol xinafoate 1.50 mg in HFA 134a 3 g, surfactant 0.15 mg (10% w/w relative to drug)
Experimental: Salmeterol xinafoate formulations in HFA 134a, strength 25 mcg per dose for each of 60 actuations, and 10% w/w (relative to drug) of the relevant surfactant compound of formula (I) (i.e. Example 3 or Example 4) were prepared in aluminum cans with a crimped cap containing a metering valve using salmeterol xinafoate (1.50 mg), HFA 134a (3 g) and the relevant compound (0.15 mg). The control was prepared without the addition of a surfactant.
Cans containing the said formulations for analysis were cooled to […] to liquefy the propellant therein. These were then opened and the contents collected in a vessel. The valve and the empty can were quantitatively washed. The washings for each component were kept separate. The amount of drug in: the contents removed from the can, the valve washings and the can washing was quantified by HPLC analysis.
Therefore, the presence of said surfactants in formulations seems to reduce the deposition of the drug on the can and valve.

Compound: COCCOCCOCCOCCCOCC(OCCCOCCOCCOCCOC)C(=O)O (centres unmarked) [Example 3, 17-(4,7,10,13-Tetraoxatetradec-1-yloxy)-2,5,8,11,15-pentaoxaoctadecan-18-oic acid]
- BoU Dose % RSD ([1]; can to can reproducibility at beginning of use, 10% w/w surfactant, 10 cans): 0.7%
- EoU Dose % RSD ([1]; can to can reproducibility at end of use, 10% w/w surfactant, 10 cans): 13.9%
- EoU − BoU (rise in dose from beginning to end of use) ([1]; 10% w/w surfactant relative to drug): 1.4 µg
- BoU Dose ([1]; 10% w/w surfactant relative to drug, beginning of use, actuations 1 and 2, 10 cans): 15.8 µg
- EoU Dose ([1]; 10% w/w surfactant relative to drug, end of use, actuations 119 and 120, 10 cans): 17.2 µg
- Can Deposition ([2]; aluminum can): 0.25 mg
- Valve Deposition ([2]; aluminum can): 0.33 mg
- Drug Content In Can ([2]; contents removed from can): 0.56 mg
